Test results published in US20230157952A1, “METHOD FOR IMPROVING THE STABILITY OF A PHARMACEUTICAL COMPOSITION COMPRISING A HIGH PENETRATION DRUG, AND THE PHARMACEUTICAL COMPOSITION OBTAINED THEREFROM” (Techfields Inc., priority 2020, published 2023).

What was measured:
Type in all cases: physicochemical
[1] = Effect of pH value on the stability of the solution (purity); conditions: 25° C.
[2] = Stability of the pure HPDs (dry solid) at 25° C./RH 60%; conditions: pure HPD, 25° C./RH 60%
[3] = Effect of temperature (and pH) on the stability of the solution (purity); conditions: 7% solution in water
[4] = day 28, pH 1.0, 7% in 25% ethanol
[5] = day 28, pH 2.0, 7% in 25% ethanol
[6] = day 28, pH 3.0, 7% in 25% ethanol
[7] = day 28, pH 3.7, 7% in 25% ethanol
[8] = day 28, pH 4.0, 7% in 25% ethanol
[9] = day 28, pH 4.3, 7% in 25% ethanol
[10] = day 28, pH 4.6, 7% in 25% ethanol
[11] = day 28, pH 5.0, 7% in 25% ethanol
[12] = day 28, pH 6.0, 7% in 25% ethanol
[13] = day 28, pH 7.0, 7% in 25% ethanol
[14] = day 28, pH 8.0, 7% in 25% ethanol

| SMILES | Purity(%) from day 0-28 [1, 4] | Purity(%) from day 0-28 [1, 5] | Purity(%) from day 0-28 [1, 6] | Purity(%) from day 0-28 [1, 7] | Purity(%) from day 0-28 [1, 8] | Purity(%) from day 0-28 [1, 9] | Purity(%) from day 0-28 [1, 10] | Purity(%) from day 0-28 [1, 11] | Purity(%) from day 0-28 [1, 12] | Purity(%) from day 0-28 [1, 13] | Purity(%) from day 0-28 [1, 14] | Purity(%) from day 0-14 ([1]; day 14, pH 1.0, 7% in water) | Purity(%) from day 0-14 ([1]; day 14, pH 2.0, 7% in water) | Purity(%) from day 0-14 ([1]; day 14, pH 3.0, 7% in water) | Purity(%) from day 0-14 ([1]; day 14, pH 3.7, 7% in water) | Purity(%) from day 0-14 ([1]; day 14, pH 4.0, 7% in water) | Purity(%) from day 0-14 ([1]; day 14, pH 4.3, 7% in water) | Purity ([2]; 12 month) | Purity ([2]; 18 month) | Purity ([2]; 24 month) | also measured |
| --- | --- | --- | --- | --- | --- | --- | --- | --- | --- | --- | --- | --- | --- | --- | --- | --- | --- | --- | --- | --- | --- |
| CCN(CC)CCOC(=O)c1ccccc1OC(C)=O.O=C(O)c1ccccc1 [A-2, 2-(diethylamino)ethyl acetylsalicylate•benzoic acid salt] |  |  |  |  |  |  |  |  |  |  |  | 60.5 ± 0.3% | 79.7 ± 0.4% | 91.0 ± 0.2% | 94.1 ± 0.2% | 95.0 ± 0.3% | 95.0 ± 0.4% | 97.9 ± 0.1 | 97.6 ± 0.2 | 97.1 ± 0.2 | Purity(%) from day 0-14 ([1]; day 14, pH 4.6, 7% in water): 94.4 ± 0.3%; Purity(%) from day 0-14 ([1]; day 14, pH 5.0, 7% in water): 87.3 ± 0.2%; Purity(%) from day 0-14 ([1]; day 14, pH 6.0, 7% in water): 78.3 ± 0.3%; Purity(%) from day 0-14 ([1]; day 14, pH 7.0, 7% in water): 56.0 ± 0.4%; Purity(%) from day 0-14 ([1]; day 14, pH 8.0, 7% in water): 17.7 ± 0.4% |
| CCN(CC)CCOC(=O)C(C)c1ccc(-c2ccccc2)c(F)c1.Cl (centres unmarked) [B-1-1, 2-(diethylamino)ethyl 2-(2-fluoro-4-biphenyl)propionate•HCl salt] |  |  |  |  |  |  |  |  |  |  |  |  |  |  |  |  |  |  | 98.1 ± 0.1 | 98.0 ± 0.1 | Stability of the solution at a temperature higher than 40° C. and a pH lower than 3 or greater than 6 [3]: not stable; Purity ([2]; 6 month): 98.1 ± 0.1 |
| CC(O)C(=O)O.CCN(CC)CCOC(=O)c1ccccc1OC(C)=O [A-3, 2-(diethylamino)ethyl acetylsalicylate•lactic acid salt] |  |  |  |  |  |  |  |  |  |  |  | 57.9 ± 0.4% | 77.0 ± 0.4% | 88.7 ± 0.2% | 93.1 ± 0.3% | 94.1 ± 0.4% | 94.4 ± 0.2% | 97.9 ± 0.2 | 97.3 ± 0.1 | 96.8 ± 0.2 | Purity(%) from day 0-14 ([1]; day 14, pH 4.6, 7% in water): 94.1 ± 0.2%; Purity(%) from day 0-14 ([1]; day 14, pH 5.0, 7% in water): 85.6 ± 0.4%; Purity(%) from day 0-14 ([1]; day 14, pH 6.0, 7% in water): 78.3 ± 0.3%; Purity(%) from day 0-14 ([1]; day 14, pH 7.0, 7% in water): 55.1 ± 0.3%; Purity(%) from day 0-14 ([1]; day 14, pH 8.0, 7% in water): 15.0 ± 0.4% |

Continued, in another order:

| Purity(%) from day 0-28 [1, 4] | Purity(%) from day 0-28 [1, 5] | Purity(%) from day 0-28 [1, 6] | Purity(%) from day 0-28 [1, 7] | Purity(%) from day 0-28 [1, 8] | Purity(%) from day 0-28 [1, 9] | Purity(%) from day 0-28 [1, 10] | Purity(%) from day 0-28 [1, 11] | Purity(%) from day 0-28 [1, 12] | Purity(%) from day 0-28 [1, 13] | Purity(%) from day 0-28 [1, 14] | SMILES | Purity(%) from day 0-14 ([1]; day 14, pH 1.0, 7% in water) | Purity(%) from day 0-14 ([1]; day 14, pH 2.0, 7% in water) | Purity(%) from day 0-14 ([1]; day 14, pH 3.0, 7% in water) | Purity(%) from day 0-14 ([1]; day 14, pH 3.7, 7% in water) | Purity(%) from day 0-14 ([1]; day 14, pH 4.0, 7% in water) | Purity(%) from day 0-14 ([1]; day 14, pH 4.3, 7% in water) | Purity ([2]; 12 month) | Purity ([2]; 18 month) | Purity ([2]; 24 month) | also measured |
| --- | --- | --- | --- | --- | --- | --- | --- | --- | --- | --- | --- | --- | --- | --- | --- | --- | --- | --- | --- | --- | --- |
| 66.8 ± 0.3% | 86.0 ± 0.4% | 86.0 ± 0.3% | 94.3 ± 0.3% | 95.8 ± 0.3% | 96.5 ± 0.4% | 96.2 ± 0.3% | 89.3 ± 0.2% | 86.2 ± 0.3% | 48.0 ± 0.3% | 34.3 ± 0.4% | CC(C)Cc1ccc([C@@H](C)C(=O)OC[C@@H]2CCCN2)cc1.Cl [C-7, 2-pyrrolidinemethyl (R,S)-2-(p-isobutylphenyl)propionate•HCl salt] |  |  |  |  |  |  |  | 98.0 ± 0.3 | 97.9 ± 0.1 | Purity ([2]; 9 month): 98.1 ± 0.1 |
| 68.4 ± 0.3% | 79.2 ± 0.4% | 91.2 ± 0.3% | 96.9 ± 0.2% | 97.3 ± 0.2% | 97.3 ± 0.3% | 97.1 ± 0.3% | 94.5 ± 0.3% | 89.2 ± 0.4% | 51.5 ± 0.3% | 35.1 ± 0.3% | CCCCN(CCCC)CCOC(=O)C(C)c1ccc(CC(C)C)cc1.Cl (racemic) [C-6, 2-(dibutylamino)ethyl (R,S)-2-(p-isobutylphenyl)propionate•HCl salt] |  |  |  |  |  |  |  |  | 98.1 ± 0.2 |  |
| 65.3 ± 0.3% | 77.4 ± 0.3% | 88.4 ± 0.2% | 95.7 ± 0.3% | 96.6 ± 0.4% | 96.8 ± 0.3% | 96.8 ± 0.2% | 93.1 ± 0.4% | 85.3 ± 0.2% | 47.1 ± 0.3% | 34.9 ± 0.5% | CC(C)Cc1ccc([C@@H](C)C(=O)OCCN(C)C)cc1.Cl (racemic) [C-5, 2-(dimethylamino)ethyl (R,S)-2-(p-isobutylphenyl)propionate•HCl salt] |  |  |  |  |  |  | 98.0 ± 0.4 | 97.9 ± 0.1 | 97.7 ± 0.4 | Purity ([2]; 3 month): 98.1 ± 0.2; Purity ([2]; 6 month): 98.1 ± 0.3 |
